target: TACE (Homo sapiens (Human), UniProt P78536); test: TACE inhibition test (in vitro); type: biochemical; conditions: fluorescent synthetic substrate, 37° C., 1.5 hours
Protocol: The nucleotide sequence of TACE has been reported by Moss et al. (Moss, M. L. et al., Nature 1997, 385, 733-736). Accordingly, the cDNA of TACE was obtained according to the prescribed method from THP-1 cells or the like, and then incorporated the cDNA into an expression vector. Next, this vector was transformed into mammalian cells or insect cells, and TACE expression was obtained.
The TACE inhibition test was carried out by measuring TACE activity in the presence and the absence of the test substance using the thus-obtained TACE as an enzyme, and a fluorescent synthetic substrate Nma(N-methylanthranilic acid)-Leu-Ala-Gln-Ala-Val-Arg-Ser-Ser-Lys(Dnp(dinitrophenyl))-D-Arg-NH2 (SEQ ID NO: 1) including the TACE-cleaved sequence of a membrane-bound TNF as a substrate. The TACE inhibition test method is shown below.
Namely, 90 μL of an enzyme solution prepared with an assay buffer A (50 mM tris-hydrochloric acid buffer (pH 7.5) including 200 mM sodium chloride, 5 mM calcium chloride, 10 μM zinc sulfate, and 2 mg/mL bovine serum albumin) and 90 μL of a fluorescent synthetic substrate prepared with an assay buffer B (50 mM tris-hydrochloric acid buffer (pH 7.5) including 200 mM sodium chloride, 5 mM calcium chloride, 10 μM zinc sulfate, and 0.05% PLURONIC F-68) were mixed together, and reacted at 37° C. for 1.5 hours. Enzyme activity was then determined by measuring with a fluorescence intensity meter (Labsystems, Fluoroskan Ascent) at an excitation wavelength of 355 nm and a measurement wavelength of 460 nm.
From the enzyme activity in the presence or the absence of the test substance, the inhibition rate was determined, and the 50% inhibitiory concentration (IC50) of the test substance was calculated.

Sequence of TACE (P78536 215-824): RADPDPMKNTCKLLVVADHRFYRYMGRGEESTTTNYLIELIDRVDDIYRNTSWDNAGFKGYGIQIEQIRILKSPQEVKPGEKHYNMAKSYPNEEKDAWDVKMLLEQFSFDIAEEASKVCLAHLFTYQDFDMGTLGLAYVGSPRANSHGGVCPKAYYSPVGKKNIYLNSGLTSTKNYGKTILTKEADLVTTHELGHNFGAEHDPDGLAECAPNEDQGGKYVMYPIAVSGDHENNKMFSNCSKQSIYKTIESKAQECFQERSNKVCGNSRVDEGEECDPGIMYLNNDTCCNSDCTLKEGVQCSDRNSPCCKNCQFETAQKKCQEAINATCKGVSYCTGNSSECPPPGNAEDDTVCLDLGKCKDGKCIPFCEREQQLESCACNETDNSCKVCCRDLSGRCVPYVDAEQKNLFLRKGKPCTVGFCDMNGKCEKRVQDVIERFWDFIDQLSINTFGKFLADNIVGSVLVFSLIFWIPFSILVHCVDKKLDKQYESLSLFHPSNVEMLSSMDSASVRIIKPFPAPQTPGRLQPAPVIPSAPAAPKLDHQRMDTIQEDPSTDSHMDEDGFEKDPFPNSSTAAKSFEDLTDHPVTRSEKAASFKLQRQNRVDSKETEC

Row | IC50 [nM] | SMILES
1 | < 100 | Cc1cccn(CC2(c3ccc(F)cc3)NC(=O)NC2=O)c1=O (centres unmarked) [Compound I-15, 5-(4-fluorophenyl)-5-[(3-methyl-2-oxopyridin-1(2H)-yl)methyl]imidazolidine-2,4-dione]
2 | < 100 | Cc1cccn(CC2(c3cccc(-c4ccc(F)cn4)c3)NC(=O)NC2=O)c1=O (centres unmarked) [Compound I-93]
3 | < 100 | O=C1NC(=O)C(Cn2cccc(Cl)c2=O)(c2ccc(F)c(F)c2)N1 (centres unmarked) [Compound I-146]
4 | < 100 | Cc1cccn(CC2(c3ccc(Oc4ccc(F)cc4)c(F)c3)NC(=O)NC2=O)c1=O (centres unmarked) [Compound I-111]
5 | < 100 | Cc1cccn(CC2(c3cc(F)c(F)cc3F)NC(=O)NC2=O)c1=O (centres unmarked) [Compound I-29, 5-[(3-methyl-2-oxopyridin-1(2H)-yl)methyl]-5-(2,4,5-trifluorophenyl)imidazolidine-2,4-dione]
6 | < 100 | COc1cc(C2(Cn3cccc(C)c3=O)NC(=O)NC2=O)cc(F)c1F (centres unmarked) [Compound I-127]
7 | < 100 | Cc1cccn(CC2(c3ccc(OC4CCCC4)cc3)NC(=O)NC2=O)c1=O (centres unmarked) [Compound I-124]
8 | < 100 | Cc1cccn(CC2(c3ccc(OCc4ccc(F)cc4)cc3)NC(=O)NC2=O)c1=O (centres unmarked) [Compound I-88]
9 | < 100 | Cc1noc(C)c1-c1ccc(C2(Cn3cccc(C)c3=O)NC(=O)NC2=O)cc1 (centres unmarked) [Compound I-90]
10 | < 100 | Cc1cccn(CC2(c3ccc(-c4ccc(F)cc4)cc3)NC(=O)NC2=O)c1=O (centres unmarked) [Compound I-75]
11 | < 100 | Cc1cccn(CC2(c3ccc(CCc4ccccc4)cc3)NC(=O)NC2=O)c1=O (centres unmarked) [Compound I-107]
12 | 100 to 1000 | Cc1cccn(CC2(c3cccc(C#CC(C)(C)C)c3)NC(=O)NC2=O)c1=O (centres unmarked) [Compound I-63]
13 | < 100 | C=C(C)c1ccc(C2(Cn3cccc(C)c3=O)NC(=O)NC2=O)cc1 (centres unmarked) [Compound I-108]
14 | < 100 | CCOc1ccc(C2(Cn3cccc(C)c3=O)NC(=O)NC2=O)cc1 (centres unmarked) [Compound I-119]
15 | < 100 | Cc1cccn(CC2(c3cccc(OC(F)(F)F)c3)NC(=O)NC2=O)c1=O (centres unmarked) [Compound I-67]
16 | < 100 | Cc1cccn(CC2(c3cccc(-c4ccccn4)c3)NC(=O)NC2=O)c1=O (centres unmarked) [Compound I-94]
17 | < 100 | Cc1cccn(CC2(c3ccc(OC(F)(F)F)cc3)NC(=O)NC2=O)c1=O (centres unmarked) [Compound I-79]
18 | < 100 | Cc1cccn(CC2(c3cc4ccccc4o3)NC(=O)NC2=O)c1=O (centres unmarked) [Compound I-6, 5-(benzofuran-2-yl)-5-[(3-methyl-2-oxopyridin-1(2H)-yl)methyl]imidazolidine-2,4-dione]
19 | < 100 | Cc1cccn(CC2(c3cccc(Br)c3)NC(=O)NC2=O)c1=O (centres unmarked) [Compound I-57]
20 | < 100 | Cc1cccn(CC2(c3ccc(Oc4ccccc4)c(Cl)c3)NC(=O)NC2=O)c1=O (centres unmarked) [Compound I-123]
21 | < 100 | O=C1NC(=O)C(Cn2cccc(Br)c2=O)(c2ccccc2)N1 (centres unmarked) [Compound I-139]
22 | 100 to 1000 | O=C1NC(=O)C(Cn2ccccc2=O)(c2ccc(Cc3ccccc3)cc2)N1 (centres unmarked) [Compound I-156]
23 | < 100 | COc1ccc(C2(Cn3cccc(Cl)c3=O)NC(=O)NC2=O)cc1 (centres unmarked) [Compound I-137]
24 | < 100 | Cc1cccn(CC2(c3ccc(CC(C)C)cc3)NC(=O)NC2=O)c1=O (centres unmarked) [Compound I-121]
25 | < 100 | Cc1cccn(CC2(c3ccc(S(C)(=O)=O)cc3)NC(=O)NC2=O)c1=O (centres unmarked) [Compound I-25, 5-[(3-methyl-2-oxopyridin-1(2H)-yl)methyl]-5-[4-(methylsulfonyl)phenyl]imidazolidine-2,4-dione]
26 | < 100 | COc1ccc(-c2ccc(C3(Cn4cccc(C)c4=O)NC(=O)NC3=O)cc2)cc1 (centres unmarked) [Compound I-72]
27 | < 100 | Cc1cccn(CC2(c3cccc(F)c3F)NC(=O)NC2=O)c1=O (centres unmarked) [Compound I-153]
28 | < 100 | O=C1NC(=O)C(Cn2cccc(C(F)(F)F)c2=O)(c2ccccc2)N1 (centres unmarked) [Compound I-140]
29 | < 100 | O=C1NC(=O)C(Cn2cccc(F)c2=O)(c2ccc3ccccc3c2)N1 (centres unmarked) [Compound I-135]

Source: patent US10000476B2, “Pyridone derivative, pharmaceutical containing the same and methods of use thereof” (KAKEN PHARMACEUTICAL CO., LTD., priority 2011, dated 2018)
